What was measured:
[1] = test system: HBsAg; assay: HBsAg assay (CLIA of secreted HBsAg in HepG2.2.15 culture supernatant); type: cell-based, HBV; details: Hepatitis B virus
Protocol: (§1) HepG2.2.15 cells (Acs et al. Proc Natl Acad Sci USA, 84, (1987), 4641-4), a constitutively HBV-expressing cell line were cultured in DMEM+Glutamax-I medium (Invitrogen, Carlsbad, Calif., USA), supplemented with 10% fetal bovine serum (Invitrogen) and G418 (Invitrogen) at a final concentration of 200 mg/L and maintained in 5% CO2 at 37° C.
HepG2.2.15 cells were seeded in duplicate into white, 96-well plates at 1.5×10^4 cells/well. The cells were treated with a three-fold serial dilution series of the compounds in DMSO. The final DMSO concentration in all wells was 1% and DMSO was used as no drug control.
The HBsAg chemiluminescence immunoassay (CLIA) kit (Autobio Diagnostics Co., Zhengzhou, China, Catalog number: CL0310-2) was used to measure the levels of secreted HBV antigens semi-quantitatively. For the detection 50 μL/well culture supernatant was used and HBsAg was quantified using HBsAg chemiluminescence immunoassay (CLIA) kit (Autobio Diagnostics Co., Zhengzhou, China, Catalog number: CL0310-2), 50 μL of the supernatant was transferred to the CLIA assay plate and 50 μL of enzyme conjugate reagent was added into each well. The plates were sealed and gently agitated for 1 hour at room temperature. The supernatant-enzyme-mixture was discarded and wells were washed 6 times with 300 μL of PBS. The residual liquid was removed by plating the CLIA plate right side down on absorbent tissue paper. 25 μL of substrates A and B were added to each well. Luminance was measured using a luminometer (Mithras LB 940 Multimode Microplate Reader) after 10 minutes incubation. Dose-response curves were generated and the IC50 value was extrapolated by using the E-WorkBook Suite (ID Business Solutions Ltd., Guildford, UK). The IC50 was defined as the compound concentration at which HBsAg secretion was reduced by 50% compared to the no drug control.
The compounds according to formula I were tested for their capacity to inhibit HBsAg as described herein.

[2] = test system: HBV DNA; assay: HBV DNA assay (real-time qPCR/TaqMan of extracellular HBV DNA, HepG2.2.15 cells); type: cell-based; details: Hepatitis B virus, 144 h; Anti HBV DNA production activity in HepG2.2.15 cells, supernatant, six days after treatment
Protocol: as §1
The assay employs real-time qPCR (TaqMan) to directly measure extracellular HBV DNA copy number in the cell supernatant. HepG2.2.15 cells were plated in 96-well microtiter plates before treatment with complete medium (DMEM, Glutamax, 10% FBS, 1% Penicillin/Streptomycin, 250 μg/mL Genetycin, final DMSO concentration is 1%). Only the interior wells were utilized to reduce “edge effects” observed during cell culture, the exterior wells were filled with complete medium to help minimize sample evaporation. The HepG2.2.15 cells were treated 1 h later with various concentrations of a test compound in duplicate (top concentration used at 5 μM, 2 μM or 0.5 μM according to the HBsAg IC50 observed, with 1/3 successive dilutions (total of 10 dilutions). Six days following the initial administration of the test compound, the cell culture supernatant was collected; DNA extraction was performed by automated system (Magnapure) and then used in a real-time qPCR/TaqMan assay to determine HBV DNA copy numbers. Antiviral activity was calculated from the reduction in HBV DNA levels (IC50). The compounds of the present invention were tested for their capacity to inhibit HBV DNA as described herein.

Row | Structure (SMILES) | IC50 [1] | IC50 [2]
1 | COc1cc(F)nc(N2CCc3nc(-c4cscn4)ncc3C2C)c1 (centres unmarked) [Example 5, 4-[6-(6-Fluoro-4-methoxy-2-pyridyl)-5-methyl-7,8-dihydro-5H-pyrido[4,3-d]pyrimidin-2-yl]thiazole] | 23 nM | 8.7 nM
2 | CC1c2cnc(-c3cscn3)nc2CCN1c1cc(F)nc(N2CCN(S(C)(=O)=O)CC2)c1 (centres unmarked) [Example 20, 4-[6-[2-fluoro-6-(4-methylsulfonylpiperazin-1-yl)-4-pyridyl]-5-methyl-7,8-dihydro-5H-pyrido[4,3-d]pyrimidin-2-yl]thiazole] | 13 nM | 20.3 nM
3 | COc1cc(F)nc(N2CCc3nc(-c4ncc[nH]4)ncc3C2C)c1 (centres unmarked) [Example 26, 6-(6-Fluoro-4-methoxy-2-pyridyl)-2-(1H-imidazol-2-yl)-5-methyl-7,8-dihydro-5H-pyrido[4,3-d]pyrimidine] | 31 nM | 5.7 nM
4 | CC1c2cnc(-c3cscn3)nc2CCN1c1cc(F)nc(OCC2CC2)c1 (centres unmarked) [Example 31, 4-[6-[2-(cyclopropylmethoxy)-6-fluoro-4-pyridyl]-5-methyl-7,8-dihydro-5H-pyrido[4,3-d]pyrimidin-2-yl]thiazole] | 117 nM | 
5 | CC1c2cnc(-c3cscn3)nc2CCN1c1cc(OCC2CC2)cc(F)n1 (centres unmarked) [Example 32, 4-[6-[4-(cyclopropylmethoxy)-6-fluoro-2-pyridyl]-5-methyl-7,8-dihydro-5H-pyrido[4,3-d]pyrimidin-2-yl]thiazole] | 39 nM | 
6 | CC1c2cnc(-c3cscn3)nc2CCN1c1cc(F)cc(OCC2CC2)n1 (centres unmarked) [Example 33, 4-[6-[6-(cyclopropylmethoxy)-4-fluoro-2-pyridyl]-5-methyl-7,8-dihydro-5H-pyrido[4,3-d]pyrimidin-2-yl]thiazole] | 212 nM | 
7 | CC1c2cnc(-c3cscn3)nc2CCN1c1cc(F)nc(OCC(F)F)c1 (centres unmarked) [Example 34, 4-[6-[2-(2,2-difluoroethoxy)-6-fluoro-4-pyridyl]-5-methyl-7,8-dihydro-5H-pyrido[4,3-d]pyrimidin-2-yl]thiazole] | 140 nM | 
8 | CC1c2cnc(-c3cscn3)nc2CCN1c1cc(OCC(F)F)cc(F)n1 (centres unmarked) [Example 35, 4-[6-[4-(2,2-difluoroethoxy)-6-fluoro-2-pyridyl]-5-methyl-7,8-dihydro-5H-pyrido[4,3-d]pyrimidin-2-yl]thiazole] | 39 nM | 
9 | CC1c2cnc(-c3cscn3)nc2CCN1c1cc(F)cc(OCC(F)F)n1 (centres unmarked) [Example 36, 4-[6-[6-(2,2-difluoroethoxy)-4-fluoro-2-pyridyl]-5-methyl-7,8-dihydro-5H-pyrido[4,3-d]pyrimidin-2-yl]thiazole] | 112 nM | 
10 | CC1c2cnc(-c3cscn3)nc2CCN1c1cc(F)nc(OCC2CCOC2)c1 (centres unmarked) [Example 37, 4-[6-[2-fluoro-6-(tetrahydrofuran-3-ylmethoxy)-4-pyridyl]-5-methyl-7,8-dihydro-5H-pyrido[4,3-d]pyrimidin-2-yl]thiazole] | 70 nM | 
11 | CC1c2cnc(-c3cscn3)nc2CCN1c1cc(OCC2CCOC2)cc(F)n1 (centres unmarked) [Example 38, 4-[6-[6-fluoro-4-(tetrahydrofuran-3-ylmethoxy)-2-pyridyl]-5-methyl-7,8-dihydro-5H-pyrido[4,3-d]pyrimidin-2-yl]thiazole] | 20 nM | 
12 | CC1c2cnc(-c3cscn3)nc2CCN1c1cc(F)cc(OCC2CCOC2)n1 (centres unmarked) [Example 39, 4-[6-[4-fluoro-6-(tetrahydrofuran-3-ylmethoxy)-2-pyridyl]-5-methyl-7,8-dihydro-5H-pyrido[4,3-d]pyrimidin-2-yl]thiazole] | 139 nM | 
13 | CC1c2cnc(-c3cscn3)nc2CCN1c1cc(F)nc(OCCCN2CCCC2=O)c1 (centres unmarked) [Example 40, 1-[3-[[6-fluoro-4-(5-methyl-2-thiazol-4-yl-7,8-dihydro-5H-pyrido[4,3-d]pyrimidin-6-yl)-2-pyridyl]oxy]propyl]pyrrolidin-2-one] | 222 nM | 
14 | CC1c2cnc(-c3cscn3)nc2CCN1c1cc(OCCCN2CCCC2=O)cc(F)n1 (centres unmarked) [Example 41, 1-[3-[[2-fluoro-6-(5-methyl-2-thiazol-4-yl-7,8-dihydro-5H-pyrido[4,3-d]pyrimidin-6-yl)-4-pyridyl]oxy]propyl]pyrrolidin-2-one] | 102 nM | 
15 | COc1cc(F)nc(N2CCc3nc(-c4ncsc4C)ncc3C2C)c1 (centres unmarked) [Example 42, 4-[6-(6-Fluoro-4-methoxy-2-pyridyl)-5-methyl-7,8-dihydro-5H-pyrido[4,3-d]pyrimidin-2-yl]-5-methyl-thiazole] | 282 nM | 
16 | COc1cc(F)nc(N2CCc3nc(-c4ncn[nH]4)ncc3C2C)c1 (centres unmarked) [Example 43, 6-(6-Fluoro-4-methoxy-2-pyridyl)-5-methyl-2-(1H-1,2,4-triazol-5-yl)-7,8-dihydro-5H-pyrido[4,3-d]pyrimidine] | 8 nM | 1.7 nM
